# How the values were obtained:
# [1] = tested on: M14#5 human metastatic melanoma cells; assay: CellTiter-Glo Luminescent Cell Viability Assay (cytotoxicity), M14#5; type: cell-based; conditions: M14#5 cells, [DOX] = 100 μM, 3 h exposure
# Source text: (§1) The M14#5 and M14#11 human metastatic melanoma cell lines were generously provided by Dr. Barbara Mueller. The BJ foreskin fibroblasts […] were obtained from the American Type Culture Collection (ATCC) (Cat# CRL-2522). Cell media (Cat# MT10-013-CV) and trypan blue (Cat# ICN1691049) were obtained from Fisher Scientific or CellGro, and all reagents required for cell culture were purchased from Invitrogen. Cells were maintained in DMEM supplemented with 10% fetal bovine serum (Cat# 10437028), 50 units/mL penicillin, and 0.05 mg/mL streptomycin (Cat# 15140163). Cells were cultured with complete medium at 37°C in a humidified atmosphere of 5% CO2 in air. For all experiments cells were harvested from subconfluent (<80%) cultures using a trypsin-EDTA (Cat# 15400054) solution and then resuspended in fresh medium. Preparations of cells with a >90% viability, as determined by trypan blue exclusion, were used.
# (§2) The cytotoxicity of all liposomal systems used in this study, as well as free DOX, on the cells was determined using the CellTiter-Glo Luminescent Cell Viability Assay. The M14#5, M14#11, and BJ cells were plated on 96-well tissue cultured treated plates corning at a density of 5 × 10^3 cells per well and incubated for 24 h at 37°C and 5% CO2. The culture medium was then replaced with 100 μL of medium containing various concentrations of each liposomal system or free DOX. […]
# BJ foreskin fibroblasts = assay: CellTiter-Glo Luminescent Cell Viability Assay (cytotoxicity), BJ; type: cell-based, human; conditions: BJ cells, [DOX] = 100 μM, 3 h exposure
# Source text: as §1, §2
# [2] = parameters: method as in PMID 8313389, PMID 7865538; conditions: cited from earlier work
# Source text: Potential DOX delivery in vivo, however, is quite different than in vitro when one considers circulation times. […] In ...
smiles,measurement,setting,value
"COc1cccc2c1C(=O)c1c(O)c3c(c(O)c1C2=O)C[C@@](O)(C(=O)CO)C[C@@H]3O[C@H]1C[C@H](N)[C@H](O)[C@H](C)O1 [free DOX, doxorubicin]",cell viability,[1],50–60%
same,cell viability,BJ foreskin fibroblasts,50–60%
same,clearance of free DOX relative to DOX encapsulated within PEGylated liposomes,[2],450 times faster

# Source: paper PMC3505660, “Application of Collagen-Model Triple-Helical Peptide-Amphiphiles for CD44-Targeted Drug Delivery Systems” (Journal of Drug Delivery, 2012)
